# In US20100292214A1, “Compounds with Antiparasitic Activity, Applications thereof to the Treatment of Infectious Diseases Caused by Apicomplexans” (commissariat a l'Energie Atomique, priority 2007, published 2010):
# Read-outs that look alike come from different tables or passages of the source.
# Key:
# [1] = tested on: Toxoplasma gondii RH-β1 strain; experiment: microbe, parasite or virus in culture; format: cell-based; conditions: Toxoplasma gondii, read-out: IC50 assessed on Toxoplama Gondii
# [2] = tested on: asynchronous 3D7 chloroquine-sensitive P. falciparum infected red blood cells; experiment: Labeled hypoxanthine incorporation assay (in vitro anti-malarial activity); format: cell-based; conditions: Plasmodium falciparum, 3D7, Erythrocyte, read-out: IC50 assessed on Plasmodium Falciparum
# [3] = 3D7 chloroquine-sensitive strain, infected RBC, 48 h contact, [3H]-hypoxanthine incorporation, two independent experiments in duplicates
SMILES,IC50 [1],"IC50 [2, 3]",IC50 [2]
"CCCc1ccc(S(=O)(=O)n2c(=O)n(C3CCN(C(=O)OC[C@H](C)N(Cc4ccccc4)Cc4ccccc4)CC3)c3ccccc32)cc1 [Compound 55, (S)-2-(dibenzylamino)propyl 4-(2-oxo-3-(4-propylphenylsulfonyl)-2,3-dihydro-1H-benzo[d]imidazol-1-yl)piperidine-1-carboxylate]",5500 nM,9100 nM,–
"C[C@@H](COC(=O)N1CCC(n2c(=O)n(S(=O)(=O)c3ccc(F)cc3)c3ccccc32)CC1)N(Cc1ccccc1)Cc1ccccc1 [Compound 56, (S)-2-(dibenzylamino)propyl 4-(3-(4-fluorophenylsulfonyl)-2-oxo-2,3-dihydro-1H-benzo[d]imidazol-1-yl)piperidine-1-carboxylate]",1500 nM,330 nM,–
"COc1ccc(S(=O)(=O)n2c(=O)n(C3CCN(C(=O)OC[C@H](C)N(Cc4ccccc4)Cc4ccccc4)CC3)c3ccccc32)cc1 [Compound 57, (S)-2-(dibenzylamino)propyl 4-(3-(4-methoxyphenylsulfonyl)-2-oxo-2,3-dihydro-1H-benzo[d]imidazol-1-yl)piperidine-1-carboxylate]",1750 nM,410 nM,–
"C[C@@H](COC(=O)N1CCC(n2c(=O)n(S(=O)(=O)c3ccc(C(F)(F)F)cc3)c3ccccc32)CC1)N(Cc1ccccc1)Cc1ccccc1 [Compound 58, (S)-2-(dibenzylamino)propyl 4-(2-oxo-3-(4-(trifluoromethyl)phenylsulfonyl)-2,3-dihydro-1H-benzo[d]imidazol-1-yl)piperidine-1-carboxylate]",8500 nM,420 nM,–
"C[C@@H](COC(=O)N1CCC(n2c(=O)n(S(=O)(=O)c3cccs3)c3ccccc32)CC1)N(Cc1ccccc1)Cc1ccccc1 [Compound 59, (S)-2-(dibenzylamino)propyl 4-(2-oxo-3-(thiophen-2-ylsulfonyl)-2,3-dihydro-1H-benzo[d]imidazol-1-yl)piperidine-1-carboxylate]",3800 nM,470 nM,–
"C[C@@H](COC(=O)N1CCC(n2c(=O)n(S(=O)(=O)c3cccc4ccccc34)c3ccccc32)CC1)N(Cc1ccccc1)Cc1ccccc1 [Compound 61, (S)-2-(dibenzylamino)propyl 4-(3-(naphthalen-1-ylsulfonyl)-2-oxo-2,3-dihydro-1H-benzo[d]imidazol-1-yl)piperidine-1-carboxylate]",2300 nM,950 nM,–
"C[C@@H](COC(=O)N1CCC(n2c(=O)n(S(C)(=O)=O)c3ccccc32)CC1)N(Cc1ccccc1)Cc1ccccc1 [Compound 62, (S)-2-(dibenzylamino)propyl 4-(2-oxo-3-methylsulfonyl-2,3-dihydro-1H-benzo[d]imidazol-1-yl)piperidine-1-carboxylate]",1980 nM,1600 nM,–
"CC(=O)Nc1ccc(S(=O)(=O)n2c(=O)n(C3CCN(C(=O)OC[C@H](C)N(Cc4ccccc4)Cc4ccccc4)CC3)c3ccccc32)cc1 [Compound 63, (S)-2-(dibenzylamino)propyl 4-(2-oxo-3-(4-acetamidylphenylsulfonyl)-2,3-dihydro-1H-benzo[d]imidazol-1-yl)piperidine-1-carboxylate]",3000 nM,1540 nM,–
"C[C@@H](COC(=O)N1CCC(n2c(=O)n(C(=O)c3ccccc3)c3ccccc32)CC1)N(Cc1ccccc1)Cc1ccccc1 [Compound 64, (S)-2-(dibenzylamino)propyl 4-(1,2-dihydro-2-oxo-1-(benzoyl)benzo[d]imidazol-3-yl)piperidine-1-carboxylate]",960 nM,2880 nM,–
"CC(=O)n1c(=O)n(C2CCN(C(=O)OC[C@H](C)N(Cc3ccccc3)Cc3ccccc3)CC2)c2ccccc21 [Compound 65, (S)-2-(dibenzylamino)propyl 4-(1-acetyl-1,2-dihydro-2-oxobenzo[d]imidazol-3-yl)piperidine-1-carboxylate]",990 nM,2940 nM,–
"C[C@@H](COC(=O)N1CCC(n2c(=O)n(C(=O)OC(C)(C)C)c3ccccc32)CC1)N(Cc1ccccc1)Cc1ccccc1 [Compound 67, tert-butyl 3-(1-(((S)-2-(dibenzylamino)propoxy)carbonyl)piperidin-4-yl)-2,3-dihydro-2-oxobenzo[d]imidazole-1-carboxylate]",2000 nM,785 nM,–
"Cn1c(=O)n(C2CCN(C(=O)OC[C@H](Cc3ccccc3)N(Cc3ccccc3)Cc3ccccc3)CC2)c2ccccc21 [Compound 68, (S)-2-(dibenzylamino)-3-phenylpropyl 4-(1,2-dihydro-1-methyl-2-oxobenzo[d]imidazol-3-yl)piperidine-1-carboxylate]",800 nM,452 nM,–
"C[C@@H](COC(=O)N1CCC(n2c(=O)n(C)c3ccccc32)CC1)N(Cc1ccccc1)Cc1ccccc1 [Compound 69, (S)-2-(dibenzylamino)propyl 4-(1,2-dihydro-1-methyl-2-oxobenzo[d]imidazol-3-yl)piperidine-1-carboxylate]",200 nM,1540 nM,–
"O=C(OC[C@H](Cc1ccccc1)N(Cc1ccccc1)Cc1ccccc1)N1CCC(n2c(=O)n(Cc3ccccc3)c3ccccc32)CC1 [Compound 70, (S)-2-(dibenzylamino)-3-phenylpropyl 4-(1-benzyl-1,2-dihydro-2-oxobenzo[d]imidazol-3-yl)piperidine-1-carboxylate]",3600 nM,953 nM,–
"C[C@@H](COC(=O)N1CCC(n2c(=O)n(Cc3ccccc3)c3ccccc32)CC1)N(Cc1ccccc1)Cc1ccccc1 [Compound 71, (S)-2-(dibenzylamino)propyl 4-(1-benzyl-1,2-dihydro-2-oxobenzo[d]imidazol-3-yl)piperidine-1-carboxylate]",1760 nM,770 nM,–
"C[C@@H](COC(=O)N1CCC(n2c(=O)n(CC3CCCCC3)c3ccccc32)CC1)N(Cc1ccccc1)Cc1ccccc1 [Compound 72, (S)-2-(dibenzylamino)propyl 4-(1-(cyclohexylmethyl)-1,2-dihydro-2-oxobenzo[d]imidazol-3-yl)piperidine-1-carboxylate]",1570 nM,1030 nM,–
"C[C@@H](COC(=O)N1CCC(n2c(=O)n(CCNC(=O)OC(C)(C)C)c3ccccc32)CC1)N(Cc1ccccc1)Cc1ccccc1 [Compound 73, (S)-2-(dibenzylamino)propyl 4-(3-(2-tert-butyloxycarbonylaminoethyl)-2-oxo-2,3-dihydro-1H-benzo[d]imidazol-1-yl)piperidine-1-carboxylate]",3000 nM,1420 nM,–
"CC(C)(C)OC(=O)NCCn1c(=O)n(C2CCN(C(=O)OC[C@H](Cc3ccccc3)N(Cc3ccccc3)Cc3ccccc3)CC2)c2ccccc21 [Compound 74, (S)-2-(dibenzylamino)-3-phenylpropyl 4-(3-(2-tert-butyloxycarbonylaminoethyl)-2-oxo-2,3-dihydro-1H-benzo[d]imidazol-1-yl)piperidine-1-carboxylate]",3200 nM,384 nM,–
"C[C@@H](COC(=O)N1CCC(n2c(=O)n(-c3ccccc3)c3ccccc32)CC1)N(Cc1ccccc1)Cc1ccccc1 [Compound 75, (S)-2-(dibenzylamino)propyl 4-(1,2-dihydro-2-oxo-1-phenylbenzo[d]imidazol-3-yl)piperidine-1-carboxylate]",3500 nM,2290 nM,–
"O=C(CCCC[C@@H]1SC[C@@H]2NC(=O)N[C@@H]21)NCCn1c(=O)n(C2CCN(C(=O)OC[C@H](Cc3ccccc3)N(Cc3ccccc3)Cc3ccccc3)CC2)c2ccccc21 [Compound 76, (S)-2-(dibenzylamino)-3-phenylpropyl 4-(3-(2 aminoethyl)-2-oxo-2,3-dihydro-1H-benzo[d]imidazol-1-yl)piperidine-1-carboxylate D-biotin amid]",2600 nM,480 nM,–
"CCOC(=O)CCCn1c(=O)n(C2CCN(C(=O)OC[C@H](C)N(Cc3ccccc3)Cc3ccccc3)CC2)c2ccccc21 [Compound 77, (S)-2-(dibenzylamino)propyl 4-(3-(4-ethoxy-4-oxobutyl)-2-oxo-2,3-dihydro-1H-benzo[d]imidazol-1-yl)piperidine-1-carboxylate]",5700 nM,600 nM,–
"C[C@@H](COC(=O)N1CCC(n2c(=O)n(CCCC(=O)O)c3ccccc32)CC1)N(Cc1ccccc1)Cc1ccccc1 [Compound 78, (S)-4-(3-(1-((2-(dibenzylamino)propoxy)carbonyl)piperidin-4-yl)-2-oxo-2,3-dihydro-1H-benzo[d]imidazol-1-yl)butanoic acid]",1700 nM,6290 nM,–
"C[C@@H](COC(=O)N1CCC(n2c(=O)n3c4c(cccc42)C(=O)CCC3)CC1)N(Cc1ccccc1)Cc1ccccc1 [Compound 79, (S)(1-((2-(dibenzylamino)propoxy)carbonyl)piperidin-4-yl)-5,6-dihydro-imidazo[4,5,1,j,k][1]benzazepine-2,7(1H,4H)-dione]",11500 nM,3120 nM,–
"C[C@@H](COC(=O)N1CCC(Nc2ccccc2)CC1)N(Cc1ccccc1)Cc1ccccc1 [Compound 80, (S)-2-(dibenzylamino)propyl 4-(phenylamino)piperidine-1-carboxylate]",9500 nM,–,3410 nM
"COc1ccc(NC2CCN(C(=O)OC[C@H](C)N(Cc3ccccc3)Cc3ccccc3)CC2)cc1 [Compound 81, (S)-2-(dibenzylamino)propyl 4-(4-methoxyphenylamino)piperidine-1-carboxylate]",10000 nM,8420 nM,–
"COc1ccc(NC2CCN(C(=O)OC[C@H](C)N(Cc3ccccc3)Cc3ccccc3)CC2)c(OC)c1 [Compound 82, (S)-2-(dibenzylamino)propyl 4-(2,4-dimethoxyphenylamino)piperidine-1-carboxylate]",7300 nM,2380 nM,–
"COc1cc(NC2CCN(C(=O)OC[C@H](C)N(Cc3ccccc3)Cc3ccccc3)CC2)cc(OC)c1OC [Compound 83, (S)-2-(dibenzylamino)propyl 4-(3,4,5-trimethoxyphenylamino)piperidine-1-carboxylate]",16000 nM,3090 nM,–
